# Reference: ChEMBL document CHEMBL5338751, “Discovery of the First-in-Class Intestinal Restricted FXR and FABP1 Dual Modulator ZLY28 for the Treatment of Nonalcoholic Fatty Liver Disease” (J Med Chem, 2023)
# The source made the active and inactive calls. The calls are words filed in the database; no cut-off is given here.
# Assays:
# [1] = target: T1, Fatty acid-binding protein, liver (Homo sapiens, UniProt P07148); assay: Displacement of 8-anilino-1-naphthalene-sulfonic acid from FABP1 (unknown origin) incubated for 3 mins by fluorescence based assay
# T1 sequence (P07148 whole entry): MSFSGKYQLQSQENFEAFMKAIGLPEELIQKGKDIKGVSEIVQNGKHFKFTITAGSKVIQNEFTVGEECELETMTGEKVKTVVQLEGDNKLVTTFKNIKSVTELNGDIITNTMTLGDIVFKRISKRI
# [2] = Metabolic stability in mouse liver microsomes assessed as parent compound remaining incubated for 1 hr by LC-MS analysis; assay type: ADME, Microsome; details: read-out: Stability
# [3] = Metabolic stability in Sprague-Dawley rat liver microsomes assessed as parent compound remaining incubated for 1 hr by LC-MS analysis; assay type: ADME, Microsome; details: read-out: Stability
# [4] = target: T2, Bile acid receptor (Homo sapiens, UniProt Q96RI1); assay: Agonist activity at FXR-LBD (unknown origin) using fluorescein-coactivator peptide incubated for 3 hrs by TR-FRET assay
# T2 sequence (Q96RI1 whole entry): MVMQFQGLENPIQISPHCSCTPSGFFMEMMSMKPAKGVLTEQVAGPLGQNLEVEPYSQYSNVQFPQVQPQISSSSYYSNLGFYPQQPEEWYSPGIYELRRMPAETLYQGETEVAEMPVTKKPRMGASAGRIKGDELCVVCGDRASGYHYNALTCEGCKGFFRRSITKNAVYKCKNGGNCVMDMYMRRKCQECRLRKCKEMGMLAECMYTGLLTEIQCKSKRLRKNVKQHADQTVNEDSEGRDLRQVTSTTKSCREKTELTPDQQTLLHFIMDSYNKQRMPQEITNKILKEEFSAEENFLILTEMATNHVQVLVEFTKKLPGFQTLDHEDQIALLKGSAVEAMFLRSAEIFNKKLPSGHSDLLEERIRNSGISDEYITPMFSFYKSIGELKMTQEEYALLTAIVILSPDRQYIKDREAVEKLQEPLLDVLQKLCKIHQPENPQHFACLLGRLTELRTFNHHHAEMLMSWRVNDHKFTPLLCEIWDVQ
# [5] = target: T3, Fatty acid-binding protein, liver (Homo sapiens) (UniProt P07148); assay: Displacement of 8-anilino-1-naphthalene-sulfonic acid from FABP1 (unknown origin) at 10 uM incubated for 3 mins by fluorescence based assay relative to control
# T3 sequence (whole entry): T1 sequence (P07148 whole entry)
# [6] = target: T2, Bile acid receptor; assay: Agonist activity at FXR (unknown origin) expressed in human HepG2 cells co-transfected with human RXR assessed as luciferase activity incubated for 24 hrs by cell-based luciferase assay
# [7] = tested on: Mus musculus; assay: Anti-NASH activity in western diet and CCl4-induced nonalcoholic steatohepatitis C57BL/6 mouse assessed as alleviation of hepatic steatosis at 20 mg/kg, po administered for 12 weeks starting from week 8 and change in dose for every 5 days; assay type: functional, organism-based; details: time 4.0 weeks
# [8] = tested on: Mus musculus; assay: Anti-NASH activity in western diet and CCl4-induced nonalcoholic steatohepatitis C57BL/6 mouse assessed as alleviation of lobular inflammation at 20 mg/kg, po administered for 12 weeks starting from week 8 and change in dose for every 5 days; assay type: functional, organism-based; details: time 4.0 weeks
# [9] = target: G-protein coupled bile acid receptor 1 (Homo sapiens, UniProt Q8TDU6); assay: Activation of TGR5 (unknown origin) transfected in human NCI-H716 cells assessed as increase in cAMP production incubated for 24 hrs by HTR-FRET assay; assay type: functional, cell-based
# G-protein coupled bile acid receptor 1, sequence (Q8TDU6 whole entry): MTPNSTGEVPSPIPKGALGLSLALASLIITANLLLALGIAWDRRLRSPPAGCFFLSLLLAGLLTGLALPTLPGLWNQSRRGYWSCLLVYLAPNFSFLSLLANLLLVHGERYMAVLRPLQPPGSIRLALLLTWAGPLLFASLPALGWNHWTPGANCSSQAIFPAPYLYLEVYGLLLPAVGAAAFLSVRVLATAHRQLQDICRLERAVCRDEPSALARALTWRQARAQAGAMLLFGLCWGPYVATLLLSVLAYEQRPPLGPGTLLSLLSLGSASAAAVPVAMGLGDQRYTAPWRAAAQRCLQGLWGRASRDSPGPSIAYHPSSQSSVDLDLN
# [10] = Metabolic stability in Beagle dog liver microsomes assessed as parent compound remaining incubated for 1 hr by LC-MS analysis; assay type: ADME, Canis lupus familiaris, Microsome; details: read-out: Stability
# [11] = Metabolic stability in rhesus monkey liver microsomes assessed as parent compound remaining incubated for 1 hr by LC-MS analysis; assay type: ADME, Macaca mulatta, Microsome; details: read-out: Stability
# [12] = Metabolic stability in human liver microsomes assessed as parent compound remaining incubated for 1 hr by LC-MS analysis; assay type: ADME, Microsome; details: read-out: Stability
# [13] = target: Oxysterols receptor LXR-alpha (Homo sapiens, UniProt Q13133); assay: Inhibition of Gal-DBD and NHRLBD fused LXRalpha (unknown origin) transfected in African green monkey CV-1 cells by luciferase assay; assay type: cell-based
# Oxysterols receptor LXR-alpha, sequence (Q13133 whole entry, the tested form may be a part): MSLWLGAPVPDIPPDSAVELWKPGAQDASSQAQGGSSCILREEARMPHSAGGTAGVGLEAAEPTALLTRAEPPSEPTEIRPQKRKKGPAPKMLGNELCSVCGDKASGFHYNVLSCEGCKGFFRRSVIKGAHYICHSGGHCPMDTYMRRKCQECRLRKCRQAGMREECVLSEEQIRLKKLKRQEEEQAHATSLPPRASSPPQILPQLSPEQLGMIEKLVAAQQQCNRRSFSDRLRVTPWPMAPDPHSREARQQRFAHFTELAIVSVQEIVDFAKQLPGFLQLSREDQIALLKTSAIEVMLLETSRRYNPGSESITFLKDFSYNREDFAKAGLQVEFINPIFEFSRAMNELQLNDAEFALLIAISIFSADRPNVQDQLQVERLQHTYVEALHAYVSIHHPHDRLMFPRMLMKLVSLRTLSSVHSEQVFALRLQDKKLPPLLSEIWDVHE
# [14] = target: Oxysterols receptor LXR-beta (Homo sapiens, UniProt P55055); assay: Inhibition of Gal-DBD and NHRLBD fused LXRbeta (unknown origin) transfected in African green monkey CV-1 cells by luciferase assay; assay type: cell-based
# Oxysterols receptor LXR-beta, sequence (P55055 whole entry, the tested form may be a part): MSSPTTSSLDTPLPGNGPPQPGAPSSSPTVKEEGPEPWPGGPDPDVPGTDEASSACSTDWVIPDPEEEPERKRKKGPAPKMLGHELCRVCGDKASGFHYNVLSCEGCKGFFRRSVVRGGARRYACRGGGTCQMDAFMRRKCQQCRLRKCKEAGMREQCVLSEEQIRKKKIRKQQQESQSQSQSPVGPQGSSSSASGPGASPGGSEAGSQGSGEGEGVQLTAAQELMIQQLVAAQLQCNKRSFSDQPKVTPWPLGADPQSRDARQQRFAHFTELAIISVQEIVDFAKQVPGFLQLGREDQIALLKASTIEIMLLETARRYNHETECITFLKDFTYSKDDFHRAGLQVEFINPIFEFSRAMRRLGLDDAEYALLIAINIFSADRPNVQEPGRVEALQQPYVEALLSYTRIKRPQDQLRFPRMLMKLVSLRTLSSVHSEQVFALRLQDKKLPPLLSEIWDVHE
# [15] = target: Retinoic acid receptor gamma (Homo sapiens, UniProt P13631); assay: Activation of Gal-DBD and NHRLBD fused RARgamma (unknown origin) transfected in African green monkey CV-1 cells by luciferase reporter assay; assay type: cell-based
# [16] = target: Retinoic acid receptor alpha (Homo sapiens, UniProt P10276); assay: Activation of Gal-DBD and NHRLBD fused RARalpha (unknown origin) transfected in African green monkey CV-1 cells by luciferase reporter assay; assay type: cell-based
# Retinoic acid receptor alpha, sequence (P10276 whole entry, the tested form may be a part): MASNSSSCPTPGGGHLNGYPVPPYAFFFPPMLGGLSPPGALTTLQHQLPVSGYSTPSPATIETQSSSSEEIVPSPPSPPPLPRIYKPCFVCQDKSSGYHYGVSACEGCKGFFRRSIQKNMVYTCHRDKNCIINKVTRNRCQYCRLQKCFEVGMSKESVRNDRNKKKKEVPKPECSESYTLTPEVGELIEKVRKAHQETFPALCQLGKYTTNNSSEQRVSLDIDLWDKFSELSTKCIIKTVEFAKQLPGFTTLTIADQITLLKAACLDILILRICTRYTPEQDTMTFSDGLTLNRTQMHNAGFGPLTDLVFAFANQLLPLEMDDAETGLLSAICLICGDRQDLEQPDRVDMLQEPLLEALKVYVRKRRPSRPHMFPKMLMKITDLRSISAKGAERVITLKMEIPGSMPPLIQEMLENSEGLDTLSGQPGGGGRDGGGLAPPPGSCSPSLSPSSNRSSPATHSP
# [17] = target: Progesterone receptor (Homo sapiens, UniProt P06401); assay: Activation of Gal-DBD and NHRLBD fused PR (unknown origin) transfected in African green monkey CV-1 cells by luciferase reporter assay; assay type: cell-based
# Progesterone receptor, sequence (P06401 whole entry, the tested form may be a part): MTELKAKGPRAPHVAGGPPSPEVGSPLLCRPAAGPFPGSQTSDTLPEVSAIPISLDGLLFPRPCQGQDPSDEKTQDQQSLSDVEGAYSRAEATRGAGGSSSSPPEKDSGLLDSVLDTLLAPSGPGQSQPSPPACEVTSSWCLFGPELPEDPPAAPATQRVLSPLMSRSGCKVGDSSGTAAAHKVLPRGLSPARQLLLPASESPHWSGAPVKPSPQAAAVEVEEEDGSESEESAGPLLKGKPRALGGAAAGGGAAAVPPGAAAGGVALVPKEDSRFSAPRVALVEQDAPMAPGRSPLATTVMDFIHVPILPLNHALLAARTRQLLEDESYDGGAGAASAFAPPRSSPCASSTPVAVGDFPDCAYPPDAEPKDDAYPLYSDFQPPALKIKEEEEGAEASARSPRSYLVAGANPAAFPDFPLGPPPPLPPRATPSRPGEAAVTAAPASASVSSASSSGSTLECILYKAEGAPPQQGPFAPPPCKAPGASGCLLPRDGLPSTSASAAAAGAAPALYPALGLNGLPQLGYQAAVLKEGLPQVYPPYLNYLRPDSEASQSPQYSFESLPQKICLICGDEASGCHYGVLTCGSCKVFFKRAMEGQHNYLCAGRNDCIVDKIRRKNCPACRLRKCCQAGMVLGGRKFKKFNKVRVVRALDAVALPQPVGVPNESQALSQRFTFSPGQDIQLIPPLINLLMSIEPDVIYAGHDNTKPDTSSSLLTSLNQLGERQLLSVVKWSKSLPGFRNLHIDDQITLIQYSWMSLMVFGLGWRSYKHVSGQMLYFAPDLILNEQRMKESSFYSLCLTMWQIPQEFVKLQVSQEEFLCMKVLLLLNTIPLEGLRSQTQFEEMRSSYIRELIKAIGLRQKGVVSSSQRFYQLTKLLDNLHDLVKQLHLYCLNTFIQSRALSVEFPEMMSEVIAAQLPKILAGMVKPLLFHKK
# [18] = target: Androgen receptor (Homo sapiens, UniProt P10275); assay: Activation of Gal-DBD and NHRLBD fused AR (unknown origin) transfected in African green monkey CV-1 cells by luciferase reporter assay; assay type: cell-based
# Androgen receptor, sequence (P10275 whole entry, the tested form may be a part): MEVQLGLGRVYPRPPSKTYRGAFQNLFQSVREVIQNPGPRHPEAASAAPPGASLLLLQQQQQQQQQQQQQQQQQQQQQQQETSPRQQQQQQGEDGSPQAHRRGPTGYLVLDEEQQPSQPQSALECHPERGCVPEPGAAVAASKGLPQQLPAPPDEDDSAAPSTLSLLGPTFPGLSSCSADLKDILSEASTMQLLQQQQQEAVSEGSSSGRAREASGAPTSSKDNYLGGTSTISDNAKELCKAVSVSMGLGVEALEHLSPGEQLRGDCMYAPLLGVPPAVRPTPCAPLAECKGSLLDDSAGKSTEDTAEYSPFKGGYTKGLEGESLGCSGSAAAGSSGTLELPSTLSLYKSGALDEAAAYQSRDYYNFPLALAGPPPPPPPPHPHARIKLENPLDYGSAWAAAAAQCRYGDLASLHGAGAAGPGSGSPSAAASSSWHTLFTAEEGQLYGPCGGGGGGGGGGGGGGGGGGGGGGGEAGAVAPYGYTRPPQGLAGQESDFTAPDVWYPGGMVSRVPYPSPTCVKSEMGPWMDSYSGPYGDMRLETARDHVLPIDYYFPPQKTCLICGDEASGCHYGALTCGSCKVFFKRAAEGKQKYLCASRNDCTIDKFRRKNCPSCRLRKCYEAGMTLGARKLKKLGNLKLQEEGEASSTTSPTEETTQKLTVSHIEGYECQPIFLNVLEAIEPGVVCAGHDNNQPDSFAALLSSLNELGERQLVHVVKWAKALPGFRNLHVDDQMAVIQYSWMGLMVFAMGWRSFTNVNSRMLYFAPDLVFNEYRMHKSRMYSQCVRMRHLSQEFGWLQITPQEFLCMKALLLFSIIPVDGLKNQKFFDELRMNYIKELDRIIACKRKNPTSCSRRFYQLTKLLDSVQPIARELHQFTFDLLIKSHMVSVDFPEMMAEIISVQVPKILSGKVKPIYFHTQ
# [19] = target: Mineralocorticoid receptor (Homo sapiens, UniProt P08235); assay: Activation of Gal-DBD and NHRLBD fused MR (unknown origin) transfected in African green monkey CV-1 cells by luciferase reporter assay; assay type: cell-based
# Mineralocorticoid receptor, sequence (P08235 whole entry, the tested form may be a part): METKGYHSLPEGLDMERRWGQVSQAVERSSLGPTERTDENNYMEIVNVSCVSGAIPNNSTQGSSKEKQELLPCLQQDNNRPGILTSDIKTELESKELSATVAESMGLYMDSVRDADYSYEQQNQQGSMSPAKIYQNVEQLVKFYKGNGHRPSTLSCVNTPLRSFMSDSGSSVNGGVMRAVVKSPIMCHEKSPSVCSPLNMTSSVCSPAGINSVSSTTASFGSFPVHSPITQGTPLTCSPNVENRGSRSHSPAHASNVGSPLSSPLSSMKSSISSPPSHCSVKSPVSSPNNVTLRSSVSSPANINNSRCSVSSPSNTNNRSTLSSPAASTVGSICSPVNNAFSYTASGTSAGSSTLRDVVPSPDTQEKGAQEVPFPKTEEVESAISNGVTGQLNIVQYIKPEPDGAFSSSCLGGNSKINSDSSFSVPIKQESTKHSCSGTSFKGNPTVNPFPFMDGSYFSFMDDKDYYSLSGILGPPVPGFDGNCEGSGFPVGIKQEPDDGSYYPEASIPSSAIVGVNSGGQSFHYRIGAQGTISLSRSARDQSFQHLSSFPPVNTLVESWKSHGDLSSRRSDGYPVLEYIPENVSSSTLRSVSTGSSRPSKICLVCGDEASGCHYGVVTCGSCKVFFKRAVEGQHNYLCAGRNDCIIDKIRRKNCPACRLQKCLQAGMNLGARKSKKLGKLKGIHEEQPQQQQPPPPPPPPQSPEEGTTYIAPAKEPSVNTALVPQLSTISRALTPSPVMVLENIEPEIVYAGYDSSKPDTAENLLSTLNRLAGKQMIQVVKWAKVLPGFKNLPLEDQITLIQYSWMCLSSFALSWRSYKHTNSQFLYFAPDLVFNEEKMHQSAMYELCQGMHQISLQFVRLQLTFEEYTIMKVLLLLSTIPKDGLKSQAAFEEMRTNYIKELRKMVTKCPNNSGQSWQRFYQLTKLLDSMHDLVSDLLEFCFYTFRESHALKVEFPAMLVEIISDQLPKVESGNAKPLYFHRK
# [20] = target: Fatty acid-binding protein, heart (Homo sapiens, UniProt P05413); assay: Displacement of 8-anilino-1-naphthalene-sulfonic acid from FABP3 (unknown origin) incubated for 3 mins by fluorescence based assay
# Fatty acid-binding protein, heart, sequence (P05413 whole entry): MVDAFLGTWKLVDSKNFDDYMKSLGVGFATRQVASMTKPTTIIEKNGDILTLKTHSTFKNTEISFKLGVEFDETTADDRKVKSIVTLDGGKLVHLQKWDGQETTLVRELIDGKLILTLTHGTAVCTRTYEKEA
# [21] = target: Fatty acid-binding protein, adipocyte (Homo sapiens, UniProt P15090); assay: Displacement of 8-anilino-1-naphthalene-sulfonic acid from FABP4 (unknown origin) incubated for 3 mins by fluorescence based assay
# Fatty acid-binding protein, adipocyte, sequence (P15090 whole entry): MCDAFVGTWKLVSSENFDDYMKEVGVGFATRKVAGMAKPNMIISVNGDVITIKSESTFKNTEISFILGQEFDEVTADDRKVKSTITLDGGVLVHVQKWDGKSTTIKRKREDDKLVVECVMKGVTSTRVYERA
# [22] = Drug concentration in C57BL/6 mouse plasma at 20 mg/kg, po administered for 5 days and measured after 1 hr post final dose by LC-MS analysis; assay type: ADME, organism-based; details: time 5 day
# [23] = Drug concentration in C57BL/6 mouse liver at 20 mg/kg, po administered for 5 days and measured after 1 hr post final dose by LC-MS analysis; assay type: ADME, organism-based; details: time 5 day, read-out: Ct
# [24] = Drug concentration in C57BL/6 mouse ileum at 20 mg/kg, po administered for 5 days and measured after 1 hr post final dose by LC-MS analysis; assay type: ADME, organism-based; details: time 5 day, read-out: Ct
# [25] = target: Thyroid hormone receptor beta (Homo sapiens, UniProt P10828); assay: Activation of pGAL4 fused THRbeta LBD (unknown origin) transfected in HEK293 cells cotransfected with pG5-Luc and pRL-TK incubated for 24 hrs by Renilla/Firefly based dual-glo luciferase assay; assay type: cell-based
# [26] = target: T4, Peroxisome proliferator-activated receptor alpha (Homo sapiens, UniProt Q07869); assay: Inhibition of pBIND-PPARalpha (unknown origin) transfected in HepG2 cells incubated for 18 hrs in presence of […] by dual luciferase reporter assay; assay type: cell-based
# T4 sequence (Q07869 whole entry): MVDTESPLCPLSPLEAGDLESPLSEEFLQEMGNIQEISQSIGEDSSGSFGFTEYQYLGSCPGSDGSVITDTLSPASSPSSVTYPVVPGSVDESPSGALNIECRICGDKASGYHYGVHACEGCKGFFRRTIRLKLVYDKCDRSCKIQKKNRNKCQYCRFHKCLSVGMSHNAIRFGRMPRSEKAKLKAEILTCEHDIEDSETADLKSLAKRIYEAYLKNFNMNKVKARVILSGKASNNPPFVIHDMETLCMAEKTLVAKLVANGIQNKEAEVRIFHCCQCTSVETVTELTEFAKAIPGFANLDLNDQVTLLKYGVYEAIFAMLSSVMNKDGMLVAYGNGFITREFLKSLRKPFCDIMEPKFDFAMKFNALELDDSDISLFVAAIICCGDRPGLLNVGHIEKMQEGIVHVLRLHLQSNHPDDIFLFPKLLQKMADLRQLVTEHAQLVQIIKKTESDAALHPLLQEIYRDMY
# [27] = Inhibition of PPARbeta/delta (unknown origin) transfected in HepG2 cells incubated for 18 hrs in presence of GW0742 by dual luciferase reporter assay; details: Homo sapiens, HepG2, 18 h
# [28] = target: T5, Peroxisome proliferator-activated receptor gamma (Homo sapiens, UniProt P37231); assay: Inhibition of PPARgamma (unknown origin) transfected in HEK293 cells incubated for 18 hrs in presence of rosiglitazone by dual luciferase reporter assay; assay type: cell-based
# T5 sequence (P37231 whole entry): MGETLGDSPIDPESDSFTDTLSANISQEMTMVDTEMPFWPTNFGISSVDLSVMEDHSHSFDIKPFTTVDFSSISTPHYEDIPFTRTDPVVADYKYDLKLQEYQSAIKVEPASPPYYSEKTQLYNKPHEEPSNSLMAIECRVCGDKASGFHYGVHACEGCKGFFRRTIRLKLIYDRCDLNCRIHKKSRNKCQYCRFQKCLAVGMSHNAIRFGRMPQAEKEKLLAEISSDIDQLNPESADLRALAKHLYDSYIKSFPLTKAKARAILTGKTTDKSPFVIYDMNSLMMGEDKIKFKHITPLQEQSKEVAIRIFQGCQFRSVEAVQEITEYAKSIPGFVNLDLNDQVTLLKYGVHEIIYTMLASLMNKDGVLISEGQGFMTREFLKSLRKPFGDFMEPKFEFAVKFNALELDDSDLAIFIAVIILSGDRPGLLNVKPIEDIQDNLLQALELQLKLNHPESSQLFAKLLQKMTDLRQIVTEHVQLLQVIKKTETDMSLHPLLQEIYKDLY
structure (smiles),measurement,setting,value
O=C(O)CCc1ccc(-c2ccc(OCc3c(-c4c(Cl)cccc4Cl)noc3C3CC3)cc2)cc1,IC50,[1],1.4 µM
same,remaining at 1 h,[2],19.7%
same,remaining at 1 h,[3],26.1%
CC(C)(C(=O)O)c1cccc(-c2ccc(OCc3c(-c4c(Cl)cccc4Cl)noc3C3CC3)cc2)c1,EC50,[4],0.811 µM
same,inhibition,[5],85.8%
same,IC50,[1],1.5 µM
O=C(O)Cc1ccc(-c2cccc(OCc3c(-c4c(Cl)cccc4Cl)noc3C3CC3)c2)cc1,EC50,[4],> 10 µM
same,inhibition,[5],9.5%
O=C(O)COc1cccc(-c2ccc(OCc3c(-c4c(Cl)cccc4Cl)noc3C3CC3)cc2)c1,EC50,[4],0.26 µM
same,EC50,[6],1.85 µM
same,inhibition,[5],67.1%
same,IC50,[1],3.8 µM
O=C(O)CCc1cccc(-c2ccc(OCc3c(-c4c(Cl)cccc4Cl)noc3C3CC3)cc2)c1,IC50,[1],3.3 µM
CC[C@H]1[C@@H](O)[C@@H]2[C@H](CC[C@]3(C)[C@@H]([C@H](C)CCC(=O)O)CC[C@@H]23)[C@@]2(C)CC[C@@H](O)C[C@@H]12,Activity,[7],Active
same,Activity,[8],Active
CC(Oc1ccc(-c2ccc(OCc3c(-c4c(Cl)cccc4Cl)noc3C3CC3)cc2)cc1)C(=O)O (centres undefined),EC50,[4],0.32 µM
same,EC50,[6],3.51 µM
same,inhibition,[5],69.4%
same,IC50,[1],3.6 µM
O=C(O)Cc1ccc(-c2ccc(OCc3c(-c4c(Cl)cccc4Cl)noc3C3CC3)cc2)cc1,EC50,[9],> 10 µM
same,IC50,[1],2.9 µM
same,remaining at 1 h,[2],74.3%
same,remaining at 1 h,[3],86.8%
same,remaining at 1 h,[10],69.1%
same,remaining at 1 h,[11],64.5%
same,remaining at 1 h,[12],83.6%
same,EC50,[13],> 10 µM
same,EC50,[14],> 10 µM
same,EC50,[15],> 10 µM
same,EC50,[16],> 10 µM
same,EC50,[17],> 10 µM
same,EC50,[18],> 10 µM
same,EC50,[19],> 10 µM
same,IC50,[20],> 30 µM
same,IC50,[21],5.6 µM
same,concentration at 120 h,[22],2530 ng/mL
same,concentration at 120 h,[23],718 ng/g
same,concentration at 120 h,[24],158 ng/g
CC(C)c1onc(-c2c(Cl)cccc2Cl)c1COc1ccc(-c2cccc(C3(C(=O)O)CC3)c2)cc1,remaining at 1 h,[2],35.6%
same,remaining at 1 h,[3],41.1%
O=C(O)COc1ccc(-c2ccc(OCc3c(-c4c(Cl)cccc4Cl)noc3C3CC3)cc2)cc1,IC50,[1],4.2 µM
same,remaining at 1 h,[2],56.8%
same,remaining at 1 h,[3],68.3%
CCc1c(-c2ccccc2)c(-c2ccccc2)nn1-c1ccccc1-c1cccc(OCC(=O)O)c1,EC50,[4],> 10 µM
same,EC50,[6],> 10 µM
same,inhibition,[5],72.7%
same,IC50,[1],4 µM
same,EC50,[13],> 10 µM
same,EC50,[14],> 10 µM
same,EC50,[25],> 10 µM
same,IC50,[26],> 10 µM
same,IC50,[27],> 10 µM
same,IC50,[28],> 10 µM
O=C(O)Cc1ccc(-c2ccc(OCc3c(-c4c(Cl)cccc4Cl)noc3C3CC3)cc2Cl)cc1,IC50,[1],4.3 µM
CC(C)(Oc1ccc(-c2ccc(OCc3c(-c4c(Cl)cccc4Cl)noc3C3CC3)cc2)cc1)C(=O)O,IC50,[1],5.7 µM
CC(C)c1onc(-c2c(Cl)cccc2Cl)c1COc1ccc(/C=C/c2cccc(C(=O)O)c2)c(Cl)c1,inhibition,[5],35.2%
same,IC50,[1],15.3 µM
O=C(O)Cc1cccc(N2CCC(OCc3c(-c4c(Cl)cccc4Cl)noc3C3CC3)CC2)c1,EC50,[4],> 10 µM
O=C(O)C1(c2cccc(-c3cccc(OCc4c(-c5c(Cl)cccc5Cl)noc4C4CC4)c3)c2)CC1,EC50,[4],> 10 µM
